Reference: ChEMBL document CHEMBL1150678, “Bioactive sterols from the starfish Certonardoa semiregularis” (2003)
Values after ≈ are worked out from the molar mass of the structure shown.

Columns and labels:
[1] = test system: Escherichia coli; assay: Antimicrobial activity against Escherichia coli TEM isolate after 18 hrs; type: functional
[2] = test system: Escherichia coli; assay: Antimicrobial activity against Escherichia coli 1507E isolate after 18 hrs; type: functional
[3] = test system: Pseudomonas aeruginosa; assay: Antimicrobial activity against Pseudomonas aeruginosa 9027 isolate after 18 hrs; type: functional
[4] = test system: Salmonella typhimurium; assay: Antimicrobial activity against Salmonella Typhimurium after 18 hrs; type: functional, Salmonella enterica subsp. enterica serovar Typhimurium; conditions: Salmonella enterica
[5] = test system: Klebsiella oxytoca; assay: Antimicrobial activity against Klebsiella oxytoca 1082E after 18 hrs; type: functional
[6] = test system: Klebsiella aerogenes; assay: Antimicrobial activity against Klebsiella aerogenes 1522E after 18 hrs; type: functional
[7] = test system: Enterobacter cloacae; assay: Antimicrobial activity against Enterobacter cloacae P99 after 18 hrs; type: functional
[8] = test system: Enterobacter cloacae; assay: Antimicrobial activity against Enterobacter cloacae 1321E after 18 hrs; type: functional
[9] = test system: Staphylococcus aureus; assay: Antimicrobial activity against Staphylococcus aureus 285 isolate after 18 hrs; type: functional
[10] = test system: Escherichia coli; assay: Antimicrobial activity against Escherichia coli DC0 isolate after 18 hrs; type: functional
[11] = test system: Escherichia coli; assay: Antimicrobial activity against Escherichia coli 078 isolate after 18 hrs; type: functional
[12] = test system: Staphylococcus aureus; assay: Antimicrobial activity against Staphylococcus aureus 503 isolate after 18 hrs; type: functional
[13] = test system: Streptococcus pyogenes; assay: Antimicrobial activity against Streptococcus pyogenes 77A isolate after 18 hrs; type: functional
[14] = test system: Pseudomonas aeruginosa; assay: Antimicrobial activity against Pseudomonas aeruginosa 1592E isolate after 18 hrs; type: functional
[15] = test system: Pseudomonas aeruginosa; assay: Antimicrobial activity against Pseudomonas aeruginosa 1771 isolate after 18 hrs; type: functional
[16] = test system: Pseudomonas aeruginosa; assay: Antimicrobial activity against Pseudomonas aeruginosa 1771M isolate after 18 hrs; type: functional
[17] = test system: Enterococcus faecium; assay: Antimicrobial activity against Streptococcus faecium MD8b isolate after 18 hrs; type: functional
[18] = test system: Staphylococcus aureus; assay: Antimicrobial activity against Staphylococcus aureus SG511 isolate after 18 hrs; type: functional
[19] = test system: A549; assay: Cytotoxicity against human A549 cells; type: functional; conditions: read-out: ED50 (the source's name)
[20] = test system: SK-OV-3; assay: Cytotoxicity against human SKOV3 cells; type: functional; conditions: read-out: ED50 (the source's name)
[21] = test system: SK-MEL-2; assay: Cytotoxicity against human SK-MEL-2 cells; type: functional; conditions: read-out: ED50 (the source's name)
[22] = test system: XF498; assay: Cytotoxicity against human XF498 cells; type: functional; conditions: read-out: ED50 (the source's name)
[23] = test system: HCT-15; assay: Cytotoxicity against human HCT15 cells; type: functional; conditions: read-out: ED50 (the source's name)
[24] = test system: Streptococcus pyogenes; assay: Antimicrobial activity against Streptococcus pyogenes 308A isolate after 18 hrs; type: functional
[25] = test system: Escherichia coli; assay: Antimicrobial activity against Escherichia coli DC2 isolate after 18 hrs; type: functional

MIC [1] | MIC [2] | MIC [3] | MIC [4] | MIC [5] | MIC [6] | MIC [7] | MIC [8] | MIC [9] | MIC [10] | MIC [11] | MIC [12] | MIC [13] | MIC [14] | MIC [15] | MIC [16] | MIC [17] | MIC [18] | SMILES | EC50 [19] | EC50 [20] | also measured
> 25 µg/mL | > 25 µg/mL | > 25 µg/mL | > 25 µg/mL | > 25 µg/mL | > 25 µg/mL | > 25 µg/mL | > 25 µg/mL | > 25 µg/mL | > 25 µg/mL | > 25 µg/mL | > 25 µg/mL | > 25 µg/mL | > 25 µg/mL | 12.5 µg/mL (≈ 28.8 µM) | 25 µg/mL (≈ 57.5 µM) | > 25 µg/mL | > 25 µg/mL | CC(C)[C@@H](O)/C=C/[C@@H](C)[C@H]1C[C@@H](O)[C@H]2[C@@H]3C[C@H](O)[C@H]4C[C@@H](O)CC[C@]4(C)[C@H]3CC[C@@]21C [CERTONARDOSTEROL G] | 3.6 µg/mL (≈ 8.28 µM) | 3.6 µg/mL (≈ 8.28 µM) | EC50 [21]: 3.4 µg/mL (≈ 7.82 µM); EC50 [22]: 3.7 µg/mL (≈ 8.51 µM); EC50 [23]: 4 µg/mL (≈ 9.2 µM); MIC [24]: 12.5 µg/mL (≈ 28.8 µM); MIC [25]: > 25 µg/mL
> 25 µg/mL | > 25 µg/mL | > 25 µg/mL | > 25 µg/mL | > 25 µg/mL | > 25 µg/mL | > 25 µg/mL | > 25 µg/mL | > 25 µg/mL | > 25 µg/mL | > 25 µg/mL | > 25 µg/mL | > 25 µg/mL | > 25 µg/mL | 25 µg/mL (≈ 59.4 µM) | 25 µg/mL (≈ 59.4 µM) | > 25 µg/mL | > 25 µg/mL | CC(/C=C/[C@@H](C)[C@H]1C[C@@H](O)[C@H]2[C@@H]3C[C@H](O)[C@H]4C[C@@H](O)CC[C@]4(C)[C@H]3CC[C@@]21C)CO (stereo not given in full) [CERTONARDOSTEROL H] | 7.1 µg/mL (≈ 16.9 µM) | 9.4 µg/mL (≈ 22.3 µM) | EC50 [21]: 6.4 µg/mL (≈ 15.2 µM); EC50 [22]: 8.6 µg/mL (≈ 20.4 µM); EC50 [23]: 10.6 µg/mL (≈ 25.2 µM); MIC [24]: 25 µg/mL (≈ 59.4 µM); MIC [25]: > 25 µg/mL
> 25 µg/mL | > 25 µg/mL | > 25 µg/mL | > 25 µg/mL | > 25 µg/mL | > 25 µg/mL | > 25 µg/mL | > 25 µg/mL | > 25 µg/mL | > 25 µg/mL | > 25 µg/mL | > 25 µg/mL | 25 µg/mL (≈ 52.2 µM) | > 25 µg/mL | 12.5 µg/mL (≈ 26.1 µM) | 25 µg/mL (≈ 52.2 µM) | > 25 µg/mL | > 25 µg/mL | C/C(=C\[C@@H](C)[C@H]1C[C@@H](O)[C@@H]2[C@]1(C)CC[C@@H]1[C@@]3(C)CC[C@H](O)C[C@@H]3[C@@H](O)C[C@]12O)[C@H](C)[C@@H](C)CO [CERTONARDOSTEROL I] | 5.1 µg/mL (≈ 10.7 µM) | 8.8 µg/mL (≈ 18.4 µM) | EC50 [21]: 5.3 µg/mL (≈ 11.1 µM); EC50 [22]: 7.3 µg/mL (≈ 15.2 µM); EC50 [23]: 6.3 µg/mL (≈ 13.2 µM); MIC [24]: 25 µg/mL (≈ 52.2 µM); MIC [25]: > 25 µg/mL
> 25 µg/mL | > 25 µg/mL | > 25 µg/mL | > 25 µg/mL | > 25 µg/mL | > 25 µg/mL | > 25 µg/mL | > 25 µg/mL | > 25 µg/mL | > 25 µg/mL | > 25 µg/mL | > 25 µg/mL | 25 µg/mL (≈ 54 µM) | > 25 µg/mL | 12.5 µg/mL (≈ 27 µM) | 25 µg/mL (≈ 54 µM) | > 25 µg/mL | > 25 µg/mL | C/C(=C\[C@@H](C)[C@H]1C[C@@H](O)[C@H]2[C@@H]3C[C@H](O)[C@H]4C[C@@H](O)CC[C@]4(C)[C@H]3CC[C@@]21C)[C@H](C)[C@@H](C)CO [CERTONARDOSTEROL J] | 8 µg/mL (≈ 17.3 µM) | 10.3 µg/mL (≈ 22.3 µM) | EC50 [21]: 7.1 µg/mL (≈ 15.3 µM); EC50 [22]: 11.4 µg/mL (≈ 24.6 µM); EC50 [23]: 12.5 µg/mL (≈ 27 µM); MIC [24]: 25 µg/mL (≈ 54 µM); MIC [25]: > 25 µg/mL
